Assay results published in ChEMBL document CHEMBL1671854, “ramR mutations involved in efflux-mediated multidrug resistance in Salmonella enterica serovar Typhimurium” (2008).
≈ marks a conversion by molar mass, not a printed value.

Columns and labels:
Assay type in all cases: functional, Salmonella enterica subsp. enterica serovar Typhimurium
Salmonella typhimurium [1] = experiment: Antimicrobial activity against multidrug-resistant Salmonella enterica serovar Typhimurium 902SA92 harboring GyrA S83A and D87N, GyrB S464F and ParC S80I mutant genes by agar doubling dilution method
Salmonella typhimurium [2] = experiment: Antimicrobial activity against multidrug-resistant Salmonella enterica serovar Typhimurium 902SA92 harboring plasmid encoded RamR gene, GyrA S83A and D87N, GyrB S464F and ParC S80I mutant genes by agar doubling dilution method
Salmonella typhimurium [3] = experiment: Antimicrobial activity against ramA::kan-deficient Salmonella enterica serovar Typhimurium 902SA92 harboring GyrA S83A and D87N, GyrB S464F and ParC S80I mutant genes by agar doubling dilution method
Salmonella typhimurium [4] = experiment: Antimicrobial activity against multidrug-resistant Salmonella enterica serovar Typhimurium 102SA00 harboring GyrA S83A and D87N, GyrB S464F and ParC S80I mutant genes by agar doubling dilution method
Salmonella typhimurium [5] = experiment: Antimicrobial activity against multidrug-resistant Salmonella enterica serovar Typhimurium 102SA00 harboring plasmid encoded RamR gene, GyrA S83A and D87N, GyrB S464F and ParC S80I mutant genes by agar doubling dilution method
Salmonella typhimurium [6] = experiment: Antimicrobial activity against ramA::kan-deficient Salmonella enterica serovar Typhimurium 102SA00 harboring GyrA S83A and D87N, GyrB S464F and ParC S80I mutant genes by agar doubling dilution method
Salmonella typhimurium [7] = experiment: Antimicrobial activity against multidrug-resistant Salmonella enterica serovar Typhimurium BN10055 harboring GyrA S83Y mutant gene by agar doubling dilution method
Salmonella typhimurium [8] = experiment: Antimicrobial activity against multidrug-resistant Salmonella enterica serovar Typhimurium BN10055 harboring plasmid encoded RamR gene, GyrA S83Y mutant gene by agar doubling dilution method
Salmonella typhimurium [9] = experiment: Antimicrobial activity against ramA::kan-deficient Salmonella enterica serovar Typhimurium BN10055 harboring GyrA S83Y mutant gene by agar doubling dilution method
Salmonella typhimurium [10] = experiment: Antimicrobial activity against multidrug-resistant Salmonella enterica serovar Typhimurium 543SA98 harboring GyrA […] mutant gene by agar doubling dilution method
Salmonella typhimurium [11] = experiment: Antimicrobial activity against multidrug-resistant Salmonella enterica serovar Typhimurium 543SA98 harboring plasmid encoded RamR gene, GyrA S83Y mutant gene by agar doubling dilution method
Salmonella typhimurium [12] = experiment: Antimicrobial activity against ramA::kan-deficient Salmonella enterica serovar Typhimurium 543SA98 harboring GyrA S83Y mutant gene by agar doubling dilution method
Salmonella typhimurium [13] = experiment: Antimicrobial activity against multidrug-resistant Salmonella enterica serovar Typhimurium BN9945 by agar doubling dilution method
Salmonella typhimurium [14] = experiment: Antimicrobial activity against multidrug-resistant Salmonella enterica serovar Typhimurium BN9945 harboring plasmid encoded RamR gene by agar doubling dilution method
Salmonella typhimurium [15] = experiment: Antimicrobial activity against ramA::kan-deficient Salmonella enterica serovar Typhimurium BN9945 by agar doubling dilution method
Salmonella typhimurium [16] = experiment: Antimicrobial activity against multidrug-resistant Salmonella enterica serovar Typhimurium BN9181 by agar doubling dilution method
Salmonella typhimurium [17] = experiment: Antimicrobial activity against multidrug-resistant Salmonella enterica serovar Typhimurium BN9181 harboring plasmid encoded RamR gene by agar doubling dilution method
Salmonella typhimurium [18] = experiment: Antimicrobial activity against ramA::kan-deficient Salmonella enterica serovar Typhimurium BN9181 by agar doubling dilution method
Salmonella typhimurium [19] = experiment: Antimicrobial activity against Salmonella enterica serovar Typhimurium S/921495 by agar doubling dilution method
Salmonella typhimurium [20] = experiment: Antimicrobial activity against marR::kan-deficient Salmonella enterica serovar Typhimurium S/921495 by agar doubling dilution method
Salmonella typhimurium [21] = experiment: Antimicrobial activity against marR-deficient Salmonella enterica serovar Typhimurium S/921495 by agar doubling dilution method
Salmonella typhimurium [22] = experiment: Antimicrobial activity against marA::kan-deficient Salmonella enterica serovar Typhimurium S/921495 by agar doubling dilution method
Salmonella typhimurium [23] = experiment: Antimicrobial activity against soxR::kan-deficient Salmonella enterica serovar Typhimurium S/921495 by agar doubling dilution method
Salmonella typhimurium [24] = experiment: Antimicrobial activity against soxS::kan-deficient Salmonella enterica serovar Typhimurium S/921495 by agar doubling dilution method
Salmonella typhimurium [25] = experiment: Antimicrobial activity against Salmonella enterica serovar Typhimurium S/921495 harboring plasmid encoded RamR gene by agar doubling dilution method
Salmonella typhimurium [26] = experiment: Antimicrobial activity against ramR-deficient Salmonella enterica serovar Typhimurium S/921495 harboring plasmid encoded RamR gene by agar doubling dilution method
Salmonella typhimurium [27] = experiment: Antimicrobial activity against ramA::kan-deficient Salmonella enterica serovar Typhimurium S/921495 by agar doubling dilution method
Salmonella typhimurium [28] = experiment: Antimicrobial activity against Salmonella enterica serovar Typhimurium BN18 by agar doubling dilution method
Salmonella typhimurium [29] = experiment: Antimicrobial activity against Salmonella enterica serovar Typhimurium BN18 harboring plasmid encoded RamR gene by agar doubling dilution method
Salmonella typhimurium [30] = experiment: Antimicrobial activity against ramA::kan-deficient Salmonella enterica serovar Typhimurium BN18 by agar doubling dilution method
Salmonella typhimurium [31] = experiment: Antimicrobial activity against Salmonella enterica serovar Typhimurium BN18/21 by agar doubling dilution method
Salmonella typhimurium [32] = experiment: Antimicrobial activity against Salmonella enterica serovar Typhimurium BN18/21 harboring plasmid encoded RamR gene by agar doubling dilution method
Salmonella typhimurium [33] = experiment: Antimicrobial activity against ramA::kan-deficient Salmonella enterica serovar Typhimurium BN18/21 by agar doubling dilution method
Salmonella typhimurium [34] = experiment: Antimicrobial activity against Salmonella enterica serovar Typhimurium BN18/41 harboring GyrA G81C,acrR mutant genes by agar doubling dilution method
Salmonella typhimurium [35] = experiment: Antimicrobial activity against Salmonella enterica serovar Typhimurium BN18/41 harboring plasmid encoded RamR gene, GyrA G81C,acrR mutant genes by agar doubling dilution method
Salmonella typhimurium [36] = experiment: Antimicrobial activity against ramA::kan-deficient Salmonella enterica serovar Typhimurium BN18/41 harboring plasmid encoded RamR gene, GyrA G81C,acrR mutant genes by agar doubling dilution method
Salmonella typhimurium [37] = experiment: Antimicrobial activity against Salmonella enterica serovar Typhimurium BN18/71 harboring GyrA G81C, acrR mutant genes by agar doubling dilution method
Salmonella typhimurium [38] = experiment: Antimicrobial activity against Salmonella enterica serovar Typhimurium BN18/71 harboring plasmid encoded RamR gene, GyrA G81C,acrR mutant genes by agar doubling dilution method
Salmonella typhimurium [39] = experiment: Antimicrobial activity against ramA::kan-deficient Salmonella enterica serovar Typhimurium BN18/71 harboring plasmid encoded RamR gene, GyrA G81C,acrR mutant genes by agar doubling dilution method
Salmonella typhimurium [40] = experiment: Antimicrobial activity against ramR::kan-deficient Salmonella enterica serovar Typhimurium S/921495 by agar doubling dilution method
Salmonella typhimurium [41] = experiment: Antimicrobial activity against ramR-deficient Salmonella enterica serovar Typhimurium S/921495 by agar doubling dilution method

O=C(N[C@H](CO)[C@H](O)c1ccc([N+](=O)[O-])cc1)C(Cl)Cl [CHLORAMPHENICOL] gave an MIC (Salmonella typhimurium [1]) of 1020 mg/L (≈ 3170 µM), an MIC (Salmonella typhimurium [2]) of 256 mg/L (≈ 792 µM) and an MIC (Salmonella typhimurium [3]) of 256 mg/L (≈ 792 µM). It also gave an MIC (Salmonella typhimurium [4]) of 512 mg/L (≈ 1580 µM), an MIC (Salmonella typhimurium [5]) of 256 mg/L (≈ 792 µM) and an MIC (Salmonella typhimurium [6]) of 256 mg/L (≈ 792 µM). For the same compound, the MIC (Salmonella typhimurium [7]) was 1020 mg/L (≈ 3170 µM), the MIC (Salmonella typhimurium [8]) was 1020 mg/L (≈ 3170 µM) and the MIC (Salmonella typhimurium [9]) was 128 mg/L (≈ 396 µM). For the same compound, the MIC (Salmonella typhimurium [10]) was 512 mg/L (≈ 1580 µM), the MIC (Salmonella typhimurium [11]) was 128 mg/L (≈ 396 µM) and the MIC (Salmonella typhimurium [12]) was 128 mg/L (≈ 396 µM). For the same compound, the MIC (Salmonella typhimurium [13]) was 512 mg/L (≈ 1580 µM), the MIC (Salmonella typhimurium [14]) was 128 mg/L (≈ 396 µM) and the MIC (Salmonella typhimurium [15]) was 128 mg/L (≈ 396 µM). The MIC (Salmonella typhimurium [16]) was 128 mg/L (≈ 396 µM), the MIC (Salmonella typhimurium [17]) was 128 mg/L (≈ 396 µM) and the MIC (Salmonella typhimurium [18]) was 128 mg/L (≈ 396 µM). It also gave an MIC (Salmonella typhimurium [19]) of 4 mg/L (≈ 12.4 µM), an MIC (Salmonella typhimurium [20]) of 4 mg/L (≈ 12.4 µM) and an MIC (Salmonella typhimurium [21]) of 4 mg/L (≈ 12.4 µM). For the same compound, the MIC (Salmonella typhimurium [22]) was 4 mg/L (≈ 12.4 µM), the MIC (Salmonella typhimurium [23]) was 4 mg/L (≈ 12.4 µM) and the MIC (Salmonella typhimurium [24]) was 4 mg/L (≈ 12.4 µM). For the same compound, the MIC (Salmonella typhimurium [25]) was 4 mg/L (≈ 12.4 µM), the MIC (Salmonella typhimurium [26]) was 4 mg/L (≈ 12.4 µM) and the MIC (Salmonella typhimurium [27]) was 4 mg/L (≈ 12.4 µM). It also gave an MIC (Salmonella typhimurium [28]) of 4 mg/L (≈ 12.4 µM), an MIC (Salmonella typhimurium [29]) of 4 mg/L (≈ 12.4 µM) and an MIC (Salmonella typhimurium [30]) of 4 mg/L (≈ 12.4 µM). It also gave an MIC (Salmonella typhimurium [31]) of 16 mg/L (≈ 49.5 µM), an MIC (Salmonella typhimurium [32]) of 4 mg/L (≈ 12.4 µM) and an MIC (Salmonella typhimurium [33]) of 4 mg/L (≈ 12.4 µM). The MIC (Salmonella typhimurium [34]) was 32 mg/L (≈ 99 µM), the MIC (Salmonella typhimurium [35]) was 16 mg/L (≈ 49.5 µM) and the MIC (Salmonella typhimurium [36]) was 16 mg/L (≈ 49.5 µM). For the same compound, the MIC (Salmonella typhimurium [37]) was 64 mg/L (≈ 198 µM), the MIC (Salmonella typhimurium [38]) was 16 mg/L (≈ 49.5 µM) and the MIC (Salmonella typhimurium [39]) was 16 mg/L (≈ 49.5 µM). The MIC (Salmonella typhimurium [40]) was 16 mg/L (≈ 49.5 µM) and the MIC (Salmonella typhimurium [41]) was 16 mg/L (≈ 49.5 µM).
In the case of O=C(O)c1cn(C2CC2)c2cc(N3CCNCC3)c(F)cc2c1=O [CIPROFLOXACIN], the MIC (Salmonella typhimurium [1]) is reported as 32 mg/L (≈ 96.6 µM), the MIC (Salmonella typhimurium [2]) is reported as 8 mg/L (≈ 24.1 µM) and the MIC (Salmonella typhimurium [3]) is reported as 8 mg/L (≈ 24.1 µM). It also gave an MIC (Salmonella typhimurium [4]) of 32 mg/L (≈ 96.6 µM), an MIC (Salmonella typhimurium [5]) of 8 mg/L (≈ 24.1 µM) and an MIC (Salmonella typhimurium [6]) of 8 mg/L (≈ 24.1 µM). The MIC (Salmonella typhimurium [7]) was 1 mg/L (≈ 3.02 µM), the MIC (Salmonella typhimurium [8]) was 1 mg/L (≈ 3.02 µM) and the MIC (Salmonella typhimurium [9]) was 0.25 mg/L (≈ 0.754 µM). For the same compound, the MIC (Salmonella typhimurium [10]) was 0.5 mg/L (≈ 1.51 µM), the MIC (Salmonella typhimurium [11]) was 0.125 mg/L (≈ 0.377 µM) and the MIC (Salmonella typhimurium [12]) was 0.125 mg/L (≈ 0.377 µM). The MIC (Salmonella typhimurium [13]) was 0.5 mg/L (≈ 1.51 µM), the MIC (Salmonella typhimurium [14]) was 0.125 mg/L (≈ 0.377 µM) and the MIC (Salmonella typhimurium [15]) was 0.125 mg/L (≈ 0.377 µM). The MIC (Salmonella typhimurium [16]) was 0.015 mg/L (≈ 0.0453 µM), the MIC (Salmonella typhimurium [17]) was 0.015 mg/L (≈ 0.0453 µM) and the MIC (Salmonella typhimurium [18]) was 0.0075 mg/L (≈ 0.0226 µM). For the same compound, the MIC (Salmonella typhimurium [19]) was 0.015 mg/L (≈ 0.0453 µM), the MIC (Salmonella typhimurium [20]) was 0.015 mg/L (≈ 0.0453 µM) and the MIC (Salmonella typhimurium [21]) was 0.015 mg/L (≈ 0.0453 µM). The MIC (Salmonella typhimurium [22]) was 0.015 mg/L (≈ 0.0453 µM), the MIC (Salmonella typhimurium [23]) was 0.015 mg/L (≈ 0.0453 µM) and the MIC (Salmonella typhimurium [24]) was 0.015 mg/L (≈ 0.0453 µM). It also gave an MIC (Salmonella typhimurium [25]) of 0.015 mg/L (≈ 0.0453 µM), an MIC (Salmonella typhimurium [26]) of 0.015 mg/L (≈ 0.0453 µM) and an MIC (Salmonella typhimurium [27]) of 0.015 mg/L (≈ 0.0453 µM). The MIC (Salmonella typhimurium [28]) was 0.015 mg/L (≈ 0.0453 µM), the MIC (Salmonella typhimurium [29]) was 0.015 mg/L (≈ 0.0453 µM) and the MIC (Salmonella typhimurium [30]) was 0.015 mg/L (≈ 0.0453 µM). It also gave an MIC (Salmonella typhimurium [31]) of 0.125 mg/L (≈ 0.377 µM), an MIC (Salmonella typhimurium [32]) of 0.06 mg/L (≈ 0.181 µM) and an MIC (Salmonella typhimurium [33]) of 0.06 mg/L (≈ 0.181 µM). It also gave an MIC (Salmonella typhimurium [34]) of 2 mg/L (≈ 6.04 µM), an MIC (Salmonella typhimurium [35]) of 0.5 mg/L (≈ 1.51 µM) and an MIC (Salmonella typhimurium [36]) of 0.5 mg/L (≈ 1.51 µM). For the same compound, the MIC (Salmonella typhimurium [37]) was 8 mg/L (≈ 24.1 µM), the MIC (Salmonella typhimurium [38]) was 2 mg/L (≈ 6.04 µM) and the MIC (Salmonella typhimurium [39]) was 2 mg/L (≈ 6.04 µM). The MIC (Salmonella typhimurium [40]) was 0.06 mg/L (≈ 0.181 µM) and the MIC (Salmonella typhimurium [41]) was 0.06 mg/L (≈ 0.181 µM).
